Test results published in patent publication US9145407B2, “Sulfonamide compounds” (Pfizer Limited, priority 2010, dated 2015).
Structures can show the parent of a compound that is named as a salt.

Target: T1, Nav1.7 (or SCN9A) channel (Homo sapiens, UniProt Q15858)
T1 construct: expressed in transfected cells; host or cells: HEK cells, stably transfected, G-418 selected
Test: Nav1.7 (hSCN9A) whole-cell electrophysiology, PatchXpress platform
Type: cell-based
Conditions: HEK cells stably expressing hSCN9A, held at V1/2 of inactivation, calculated from single point % inhibition, read-out: Nav1.7 EIC50 (estimated IC-50)
Method: The ability of the compounds of list (I) to block the Nav1.7 (or SCN9A) channel was measured using the assay described below.
Human Embryonic Kidney (HEK) cells were transfected with an hSCN9A construct using lipofectamine reagent (Invitrogen), using standard techniques. Cells stably expressing the hSCN9A constructs were identified by their resistance to G-418 (400 μg/ml). Clones were screened for expression using the whole-cell voltage-clamp technique.
HEK cells stably transfected with hSCN9A were maintained in DMEM medium supplemented with 10% heat-inactivated fetal bovine serum and 400 μg/ml G-418 in an incubator at 37° C. with a humidified atmosphere of 10% CO2. For HTS, cells were harvested from flasks by trypsinization and replated in an appropriate multi-well plate (typically 96 or 384 wells/plate) such that confluence would be achieved within 24 hours of plating. For electrophysiological studies, cells were removed from the culture flask by brief trypsinization and re-plated at low density onto glass cover slips. Cells were typically used for electrophysiological experiments within 24 to 72 hours after plating.
Cover slips containing HEK cells expressing hSCN9A were placed in a bath on the stage of an inverted microscope and perfused (approximately 1 ml/minutes) with extracellular solution of the following composition: 138 mM NaCl, 2 mM CaCl2, 5.4 mM KCl, 1 mM MgCl2, 10 mM glucose, and 10 mM HEPES, pH 7.4, with NaOH. […] The osmolarity of the extracellular and intracellular solutions was 300 mOsm/kg and 295 mOsm/kg, respectively. All recordings were made at room temperature (22-24° C.) using AXOPATCH 200B amplifiers and PCLAMP software (Axon Instruments, Burlingame, Calif.).
hSCN9A currents in HEK cells were measured using the whole-cell configuration of the patch-clamp technique (Hamill et al., 1981). Uncompensated series resistance was typically 2 to 5 mega ohms and >85% series resistance compensation was routinely achieved. As a result, voltage errors were negligible and no correction was applied. Current records were acquired at 20 to 50 KHz and filtered at 5 to 10 KHz.
HEK cells stably transfected with hSCN9A were viewed under Hoffman contrast optics and placed in front of an array of flow pipes emitting either control or compound-containing extracellular solutions. All compounds were dissolved in dimethyl sulfoxide to make 10 mM stock solutions, which were then diluted into extracellular solution to attain the final concentrations desired. […] The voltage-dependence of inactivation was determined by applying a series of depolarizing prepulses (8 sec long in 10 mV increments) from a negative holding potential. The voltage was then immediately stepped to 0 mV to assess the magnitude of the sodium current. Currents elicited at 0 mV were plotted as a function of prepulse potential to allow estimation of the voltage at which 50% of the channels were inactivated (midpoint of inactivation or V1/2). Compounds were tested for their ability to inhibit hSCN9A sodium channels by activating the channel with a 20 msec voltage step to 0 mV following an 8 second conditioning prepulse to the empirically determined V1/2. Compound effect (% inhibition) was determined by difference in current amplitude before and after application of test compounds. For ease of comparison, “estimated IC-50” (EIC50) values were calculated from single point electrophysiology data by the following equation, (tested concentration, uM)×(100−% inhibition/% inhibition). Inhibition values <20% and >80% were excluded from the calculation.
Electrophysiological assays were conducted with PatchXpress 7000 hardware and associated software (Molecular Devices Corp). All assay buffers and solutions were identical to those used in conventional whole-cell voltage clamp experiments described above. hSCN9A cells were grown as above to 50%-80% confluency and harvested by trypsinization. […]

T1 sequence (Q15858 whole entry): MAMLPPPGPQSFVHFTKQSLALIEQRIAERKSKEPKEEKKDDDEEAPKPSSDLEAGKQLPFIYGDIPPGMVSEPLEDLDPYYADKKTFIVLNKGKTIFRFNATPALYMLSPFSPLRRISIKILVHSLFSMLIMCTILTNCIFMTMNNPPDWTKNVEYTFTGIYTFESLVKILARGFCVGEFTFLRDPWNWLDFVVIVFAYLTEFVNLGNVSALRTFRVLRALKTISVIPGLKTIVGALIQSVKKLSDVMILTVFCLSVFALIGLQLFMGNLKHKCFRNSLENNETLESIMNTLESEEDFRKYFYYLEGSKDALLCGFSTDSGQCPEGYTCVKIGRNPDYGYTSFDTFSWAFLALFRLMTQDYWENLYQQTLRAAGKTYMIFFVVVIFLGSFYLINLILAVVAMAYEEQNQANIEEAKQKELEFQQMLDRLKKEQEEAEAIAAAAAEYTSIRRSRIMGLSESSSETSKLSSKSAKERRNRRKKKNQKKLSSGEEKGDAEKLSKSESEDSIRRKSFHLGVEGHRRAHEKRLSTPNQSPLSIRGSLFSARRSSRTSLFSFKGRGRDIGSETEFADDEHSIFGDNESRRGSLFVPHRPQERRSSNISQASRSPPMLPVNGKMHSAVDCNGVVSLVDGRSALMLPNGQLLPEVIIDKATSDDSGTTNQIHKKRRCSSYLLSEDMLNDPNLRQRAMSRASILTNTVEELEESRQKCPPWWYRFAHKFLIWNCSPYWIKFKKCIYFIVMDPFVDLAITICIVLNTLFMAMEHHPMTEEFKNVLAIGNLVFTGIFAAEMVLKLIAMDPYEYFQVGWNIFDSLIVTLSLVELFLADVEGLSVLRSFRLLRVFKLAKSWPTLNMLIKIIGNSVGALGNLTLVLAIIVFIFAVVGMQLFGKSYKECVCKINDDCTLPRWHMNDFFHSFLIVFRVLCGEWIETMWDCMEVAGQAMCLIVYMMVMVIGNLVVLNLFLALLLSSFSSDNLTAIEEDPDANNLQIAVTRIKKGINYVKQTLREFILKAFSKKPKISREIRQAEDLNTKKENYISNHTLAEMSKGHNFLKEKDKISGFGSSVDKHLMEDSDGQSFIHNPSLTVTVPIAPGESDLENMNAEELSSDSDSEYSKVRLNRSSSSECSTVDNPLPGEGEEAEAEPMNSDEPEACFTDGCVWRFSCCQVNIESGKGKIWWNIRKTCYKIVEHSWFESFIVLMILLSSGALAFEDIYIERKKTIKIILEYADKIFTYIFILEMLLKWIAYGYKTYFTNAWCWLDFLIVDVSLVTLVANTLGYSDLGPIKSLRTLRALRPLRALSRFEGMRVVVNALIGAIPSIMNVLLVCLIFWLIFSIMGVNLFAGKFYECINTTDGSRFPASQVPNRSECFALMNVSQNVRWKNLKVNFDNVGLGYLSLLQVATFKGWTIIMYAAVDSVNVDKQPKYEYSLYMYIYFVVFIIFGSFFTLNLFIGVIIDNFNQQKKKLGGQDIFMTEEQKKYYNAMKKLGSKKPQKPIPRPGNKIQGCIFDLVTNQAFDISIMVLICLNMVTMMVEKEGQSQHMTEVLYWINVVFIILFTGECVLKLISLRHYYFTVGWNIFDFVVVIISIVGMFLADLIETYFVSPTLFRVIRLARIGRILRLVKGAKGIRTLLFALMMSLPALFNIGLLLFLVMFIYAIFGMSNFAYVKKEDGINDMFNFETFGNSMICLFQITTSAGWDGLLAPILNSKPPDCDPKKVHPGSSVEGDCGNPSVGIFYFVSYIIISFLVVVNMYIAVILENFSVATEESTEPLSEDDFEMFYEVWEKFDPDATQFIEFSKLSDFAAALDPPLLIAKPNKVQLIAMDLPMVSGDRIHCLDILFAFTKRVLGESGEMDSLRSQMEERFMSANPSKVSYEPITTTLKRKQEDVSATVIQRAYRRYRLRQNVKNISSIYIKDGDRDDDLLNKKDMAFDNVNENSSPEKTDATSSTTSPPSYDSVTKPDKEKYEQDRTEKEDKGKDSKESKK

| SMILES | IC50 [nM] |
| --- | --- |
| O=S(=O)(Nc1cscn1)c1cc(F)c(Oc2ccc(Cl)cc2-c2ccnc(N3CCNCC3)n2)cc1F [Example 17, 4-[4-chloro-2-(2-piperazin-1-ylpyrimidin-4-yl)phenoxy]2,5-difluoro-N-1,3-thiazol-4-ylbenzenesulfonamide trifluoroacetate] | 10 |
| O=S(=O)(Nc1nncs1)c1cc(Cl)c(Oc2ccc(Cl)cc2-c2ccnc(N3CCNCC3)n2)cc1F [Example 2, 5-Chloro-4-[4-chloro-2-(2-piperazin-1-ylpyrimidin-4-yl)phenoxy]-2-fluoro-N-1,3,4-thiadiazol-2-ylbenzenesulfonamide trifluoroacetate] | 5 |
| Nc1[nH]ncc1-c1cc(F)ccc1Oc1cc(F)c(S(=O)(=O)Nc2cscn2)cc1Cl [Example 11, 4-[2-(5-Amino-1H-pyrazol-4-yl)-4-fluorophenoxy]-5-chloro-2-fluoro-N-1,3-thiazol-4-ylbenzenesulfonamide trifluoroacetate] | 16.6 |
| O=S(=O)(Nc1cscn1)c1cc(Cl)c(Oc2cc(F)c(C(F)(F)F)cc2-c2ccnnc2)cc1F [Example 3, 5-Chloro-2-fluoro-4-[5-fluoro-2-pyridazin-4-yl-4-(trifluoromethyl)phenoxy]-N-1,3-thiazol-4-ylbenzenesulfonamide] | 18 |
| Nc1cc(-c2cc(F)ccc2Oc2cc(F)c(S(=O)(=O)Nc3cscn3)cc2Cl)ccn1 [Example 7, 4-[2-(2-Aminopyridin-4-yl)-4-fluorophenoxy]-5-chloro-2-fluoro-N-1,3-thiazol-4-ylbenzenesulfonamide trifluoroacetate] | 14.7 |
| O=S(=O)(Nc1cscn1)c1cc(Cl)c(Oc2ccc(OC(F)(F)F)cc2-c2ccnnc2)cc1F [Example 12, 5-Chloro-2-fluoro-4-[2-pyridazin-4-yl-4-(trifluoromethoxy)phenoxy]-N-1,3-thiazol-4-ylbenzenesulfonamide trifluoroacetate] | 14.6 |
| CN1CC(n2nccc2-c2cc(C(F)(F)F)ccc2Oc2cc(F)c(S(=O)(=O)Nc3nncs3)cc2Cl)C1 [Example 14, 5-Chloro-2-fluoro-4-{4-trifluoromethyl-2-[1-(1-methylazetidin-3-yl)-1H-pyrazol-5-yl]phenoxy}-N-1,3,4-thiadiazol-ylbenzenesulfonamide] | 2.6 |
| Nc1cc(-c2cc(Cl)ccc2Oc2cc(F)c(S(=O)(=O)Nc3cscn3)cc2Cl)ccn1 [Example 10, 4-[2-(2-Aminopyridin-4-yl)-4-chlorophenoxy]-5-chloro-2-fluoro-N-1,3-thiazol-4-ylbenzenesulfonamide trifluoroacetate] | 10.8 |
| Cc1cc(S(=O)(=O)Nc2ncns2)ccc1Oc1ccc(C(F)(F)F)cc1-c1ccnnc1 [Example 16, 3-Methyl-4-[2-pyridazin-4-yl-4-(trifluoromethyl)phenoxy]-N-1,2,4-thiadiazol-5-ylbenzenesulfonamide] | 3.2 |
| Cc1nnccc1-c1cc(C(F)(F)F)ccc1Oc1ccc(S(=O)(=O)Nc2ncns2)cc1C#N [Example 15, 3-Cyano-4-[2-(3-methylpyridazin-4-yl)-4-(trifluoromethyl)phenoxy]-N-1,2,4-thiadiazol-5-ylbenzenesulfonamide] | 11.6 |
| Nc1cc(-c2cc(C(F)(F)F)ccc2Oc2cc(F)c(S(=O)(=O)Nc3ncc(F)cn3)cc2Cl)ccn1 [Example 6, 4-[2-(2-Aminopyridin-4-yl)-4-(trifluoromethyl)phenoxy]-5-chloro-2-fluoro-N-(5-fluoropyrimidin-2-yl)benzenesulfonamide 4-methylbenzenesulfonate] | 8.5 |
| Nc1cc(-c2cc(Cl)ccc2Oc2cc(F)c(S(=O)(=O)Nc3ncc(F)cn3)cc2Cl)ccn1 [Example 5, 4-[2-(2-Aminopyridin-4-yl)-4-chlorophenoxy]-5-chloro-2-fluoro-N-(5-fluoropyrimidin-2-yl)benzenesulfonamide dihydrochloride] | 11.8 |
| O=S(=O)(Nc1cscn1)c1cc(Cl)c(Oc2cc(C(F)(F)F)c(F)cc2-c2ccnnc2)cc1F [Example 4, 5-Chloro-2-fluoro-4-[4-fluoro-2-pyridazin-4-yl-5-(trifluoromethyl)phenoxy]-N-1,3-thiazol-4-ylbenzenesulfonamide bis(trifluoroacetate)] | 27.5 |
| Nc1cc(-c2cc(Cl)ccc2Oc2ccc(S(=O)(=O)Nc3nncs3)cc2Cl)ccn1 [Example 9, 4-[2-(2-Aminopyridin-4-yl)-4-chlorophenoxy]-3-chloro-N-1,3,4-thiadiazol-2-ylbenzenesulfonamide trifluoroacetate] | 24 |
| Nc1n[nH]cc1-c1cc(OC(F)(F)F)ccc1Oc1cc(F)c(S(=O)(=O)Nc2cscn2)cc1Cl [Example 8, 4-[2-(3-Amino-1H-pyrazol-4-yl)-4-(trifluoromethoxy)phenoxy]-5-chloro-2-fluoro-N-1,3-thiazol-4-ylbenzenesulfonamide dihydrochloride] | 9.9 |
| O=S(=O)(Nc1cscn1)c1cc(Cl)c(Oc2ccc(Cl)cc2-c2ccnc(N3CCNCC3)n2)cc1F [Example 1, 5-Chloro-4-[4-chloro-2-(2-piperazin-1-ylpyrimidin-4-yl)phenoxy]-2-fluoro-N-1,3-thiazol-4-ylbenzenesulfonamide trifluoroacetate] | 6.7 |
| O=S(=O)(Nc1nncs1)c1cc(Cl)c(Oc2ccc(C(F)(F)F)cc2-c2ccnn2C2CNC2)cc1F [Example 13] | 1.1 |
